Consider 69 compounds from the OPERA property sets (Mansouri et al. 2018).

Conditions in one series: not given
The term melting point denotes the temperature, or range, at which the solid turns liquid. In the case of `Clc1ccc2c(c1)oc1c(Cl)c(Cl)cc(Cl)c12`, the melting point turned out to be 190 °C.

One may read the boiling point as the temperature at which the vapour pressure of the liquid equals the pressure above it. For the compound `C=CC(C)CCCC` (centres undefined), the boiling point was determined as 111 °C.

`CC(CCC(C)C)=NO` came in with a boiling point of 196 °C.

As for `O=[N+]([O-])c1ccc(/C=C/c2cccc(CO)n2)o1`, the melting point stood at 170 °C.

Regarding `CCCCC(CC)COC(=O)c1ccc(C(=O)OCC(CC)CCCC)cc1` (centres undefined), the boiling point came to 383 °C, the log10 Koc (L/kg) worked out at 4.16 and the melting point was -48 °C.

Turning to `CCCN(CCC)S(=O)(=O)c1ccc(C(=O)O)cc1`, the melting point is 195 °C.

Regarding `OCc1c(Cl)cccc1Cl`, the melting point was 98 °C.

For `O=S(=O)(CCl)c1ccccc1`, the melting point was determined as 54 °C.

Regarding `C=CC(O)CCC` (centres undefined), the boiling point was 134 °C.

Compound `CC1=NCCS1` came in with a boiling point of 145 °C and a melting point of -101 °C.

`C#CCCCCCC#C`: the boiling point amounted to 162 °C and the melting point is -27.3 °C.

Take `C[C@]12CC[C@H]3[C@@H](CCC4=C(O)C(=O)CC[C@@H]43)[C@@H]1CC[C@@H]2O`: the melting point is 189 °C.

Regarding `N#Cc1ccc(Br)cc1`, the boiling point is 236 °C.

Compound `CCCCC(O)(Cn1cncn1)c1ccc(Cl)cc1Cl` (centres undefined) returned a log10 vapour pressure (mmHg) of -6.87 and a melting point of 111 °C.

In the case of `O=Cc1ccccc1C=O`, the melting point was 56.5 °C.

Consider `FC(F)(Cl)C(F)(F)C(F)(F)C(F)(F)C(F)(F)C(F)(F)C(F)(F)C(F)(F)Cl`, for which the boiling point was found to be 151 °C.

Compound `N#Cc1nc(C#N)nc(C#N)n1` had a boiling point of 262 °C and a melting point of 119 °C.

As to `Clc1cc(Cl)cc(-c2ccccc2Cl)c1`, the log10 Henry constant (atm·m³/mol) is -3.7.

As to `C/C=C(/C(=C/C)c1ccc(O)cc1)c1ccc(O)cc1`, the melting point was found to be 228 °C.

Turning to `O=C1CCCCC1`, the boiling point turned out to be 155 °C, the log10 Henry constant (atm·m³/mol) is -5.05, the log10 vapour pressure (mmHg) was found to be 0.636 and the melting point is -31 °C. Also, the ready biodegradability result is recorded as “readily biodegradable”.

Turning to `COc1cccc(CO)c1`, the boiling point worked out at 252 °C.

Turning to `CC(C)(C)NC(=O)[C@H]1CC[C@H]2[C@@H]3CC[C@H]4NC(=O)C=C[C@]4(C)[C@H]3CC[C@]12C`, the melting point amounted to 253 °C.

For the compound `CCC(Cc1c(I)cc(I)c(O)c1I)C(=O)O` (centres undefined), the melting point was 147 °C.

`CC(CCl)CCl` returned a boiling point of 136 °C.

Turning to `CC(=O)Oc1cccnc1`, the ready biodegradability result is “readily biodegradable”.

`CCc1ccc2cc(O)c(O)cc2c1`: the melting point came to 149 °C.

Compound `O=C(Nc1ccccc1Cl)c1ccccc1` came in with a melting point of 99 °C.

Regarding `O=C(O)c1cccc(Cl)c1`, the melting point was 158 °C and the ready biodegradability result is reported as “readily biodegradable”.

Regarding `Oc1ccc2[nH]ccc2c1`, the melting point was found to be 108 °C.

With `CCCCCCC(C)CCCCCC`, the melting point is -37.2 °C.

`O=C(c1ccccc1)C1CCC1`: the boiling point was found to be 260 °C.

Turning to `O=C(O)CCc1c[nH]c2ccccc12`, the melting point worked out at 134 °C.

As for `CCN(C#N)CC`, the boiling point stood at 188 °C and the melting point was -80.6 °C.

As for `CCOC(=O)C(C)C(C)=O` (centres undefined), the boiling point is 187 °C.

Take `c1ccc2c(c1)CC1c3ccccc3CCN1C2` (centres undefined): the melting point was determined as 85 °C and the ready biodegradability result was “not readily biodegradable”.

`N#Cc1c2ccccc2cc2ccccc12` came in with a melting point of 175 °C.

In the case of `CCCCCCCCCCCC(=O)O`, the boiling point was 299 °C, the log10 vapour pressure (mmHg) is -4.8 and the melting point is 43.2 °C.

For the compound `CC1CCOC1` (centres undefined), the boiling point turned out to be 86.5 °C.

The compound `CC1=NOC(=O)/C1=N\Nc1ccccc1Cl` had a melting point of 168 °C.

Compound `CCCC(=O)C1=C(O)C(C)(C)C(O)=C(Cc2c(OC)cc(O)c(C(=O)CCC)c2O)C1=O` registered a melting point of 150 °C.

`COB1OB(OC)OB(OC)O1` came in with a boiling point of 130 °C and a melting point of 10 °C.

Compound `CN1CCN(C)C1=O` showed a boiling point of 221 °C and a melting point of 8.2 °C.

For `CCCCCOC(=O)CCC`, the boiling point amounted to 186 °C and the melting point was -73.2 °C.

The compound `COc1cc(Cl)cc(OC)c1` registered a boiling point of 234 °C and a melting point of 35 °C.

The compound `O=S1OC[C@@H]2[C@H](CO1)[C@]1(Cl)C(Cl)=C(Cl)[C@@]2(Cl)C1(Cl)Cl` (some centres undefined) yielded a log10 Koa of 8.64.

The compound `CC1(C)O[C@@H]2C[C@H]3[C@@H]4CCC5=CC(=O)C=C[C@]5(C)[C@H]4[C@@H](O)C[C@]3(C)[C@]2(C(=O)CO)O1` displayed a melting point of 274 °C.

With `CC(C)NCC(O)COc1cccc2ccccc12.Cl` (centres undefined), the melting point turned out to be 164 °C.

For the compound `Cc1ccc(C)c(Cc2ccccc2)c1`, the ready biodegradability entry was “not readily biodegradable”.

`Cc1cccc(C(=O)O)c1C`: the melting point was determined as 146 °C.

`C[C@]12CC[C@H](O[C@@H]3O[C@H](CO[C@@H]4O[C@H](CO)[C@@H](O)[C@H](O)[C@H]4O)[C@@H](O)[C@H](O)[C@H]3O)C[C@@H]1CC[C@@H]1[C@@H]2CC[C@]2(C)[C@@H](C3=CC(=O)OC3)CC[C@]12O` showed a melting point of 269 °C.

Consider `CCCOC(=O)c1ccc(C(=O)OCCC)nc1`, for which the ready biodegradability entry was “not readily biodegradable”.

The compound `COC(=O)C1CCCCC1` showed a boiling point of 183 °C.

`Cc1c(F)c(F)c(F)c(F)c1F` displayed a boiling point of 118 °C and a melting point of -29.8 °C.

As for `OCC(O)CO`, the boiling point is 290 °C, the log10 Henry constant (atm·m³/mol) was -7.76, the log10 vapour pressure (mmHg) is -3.77 and the melting point came out at 18.2 °C. The ready biodegradability entry is “readily biodegradable”.

In turn, `Cc1ccc2cccc(C)c2c1` yielded a boiling point of 263 °C and a melting point of -13.9 °C.

Compound `COC(=O)c1c(C(F)F)nc(C(F)(F)F)c(C2=NCCS2)c1CC(C)C` yielded a log10 vapour pressure (mmHg) of -5.65 and a melting point of 78 °C.

The compound `Nc1ccc(Br)cc1Br` registered a melting point of 79.5 °C.

For `CCC(C)c1ccccc1OC(=O)NC` (centres undefined), the log10 Koc (L/kg) came out at 1.71, the log10 vapour pressure (mmHg) was -3.85, the melting point turned out to be 31.5 °C and the ready biodegradability entry was “not readily biodegradable”.

For `CC(F)(Cl)Cl`, the boiling point stood at 32 °C, the log10 vapour pressure (mmHg) was 2.78 and the melting point is -104 °C.

Regarding `CCCCn1c(=O)c2c(ncn2C)n(C)c1=O`, the melting point came to 108 °C.

As for `CC(C)NCC1CCc2cc(CO)c([N+](=O)[O-])cc2N1` (centres undefined), the melting point was 148 °C.

Consider `CCCC#N`, for which the boiling point was determined as 118 °C, the log10 Henry constant (atm·m³/mol) was -4.28, the log10 Koa is 3.12 and the log10 vapour pressure (mmHg) came to 1.29. This compound yielded a melting point of -112 °C.

Take `c1cc[n+]2c(c1)-c1cccc[n+]1CC2`: the log10 Koc (L/kg) came to 2.7 and the log10 vapour pressure (mmHg) is -8.

Compound `CC(Oc1ccc(Cl)cc1Cl)C(=O)O` (centres undefined) displayed a log10 Koc (L/kg) of 2.23, a log10 vapour pressure (mmHg) of -6.73 and a melting point of 122 °C.

In the case of `O=Cc1ccc(F)cc1`, the boiling point is 182 °C and the melting point is -10 °C.

Consider `CC(C)(C)C(=O)Cl`, for which the boiling point came to 107 °C.

Staying with this series, now noted: fish.
`ClC1=C(Cl)C2(Cl)C3CC(Cl)(Cl)CC3C1(Cl)C2(Cl)Cl` (centres undefined) came in with a log10 BCF of 4.3 and a log10 biotransformation half-life (days) of 2.23.

`OCc1c(Cl)cccc1Cl` returned a log10 BCF of 0.47 and a log10 biotransformation half-life (days) of -1.37.

`ClC(Cl)=C(Cl)c1c(Cl)c(Cl)c(Cl)c(Cl)c1Cl`: the log10 BCF was found to be 3.91 and the log10 biotransformation half-life (days) was 2.04.

`COP(=O)(OC)Oc1ccc([N+](=O)[O-])c(C)c1`: the log10 BCF worked out at 0.44 and the log10 biotransformation half-life (days) was 0.01.

`CCCCCCCCCCCC(=O)O` registered a log10 BCF of 2.4.

With `Cc1ccc(C)c(Cc2ccccc2)c1`, the log10 BCF was 3.14 and the log10 biotransformation half-life (days) was determined as 0.45.

`CCC(C)c1ccccc1OC(=O)NC` (centres undefined) yielded a log10 BCF of 1.41 and a log10 biotransformation half-life (days) of -0.52.

In turn, `c1cc[n+]2c(c1)-c1cccc[n+]1CC2` came in with a log10 BCF of 0.76.
